The source of these data is patent US10556872B2, “Fatty acid synthase inhibitors and methods of use” (Hampton University, priority 2017, dated 2020).

Type in all cases: cell-based
One experiment relates to H460 lung cancer cells. As to the kind of experiment: MTT assay, cell viability of H460 lung cancer cells. As for the experimental part:
(§1) Antiproliferative effect of FAS inhibitors on MCF-7 cells was determined by performing MTT assay. Roughly, 10,000 cells per well were plated in 96-well cell culture microplate (Costar, USA) and incubated overnight in full media (DMEM containing 10% FBS) for cells to adhere to the plate. Cells were then treated with various concentrations of inhibitors and vehicle for 24 hrs in serum free media. Cell viability was evaluated by the MTT (Sigma-Aldrich, St. Louis, Mont.) assay. The absorbance of solubilized formazan was read at 570 nm using ELISA reader (Bio-TEK, Synergy-1).
(§2) We treated H460 lung cancer cells, MDA-MB-231 breast cancer cells, and PC-3 prostate cancer cells with the FAS inhibitor, Compound 1A.

Experiment [1] has as its system MDA-MB-231 breast cancer cells. Kind of experiment: MTT assay, cell viability of MDA-MB-231 breast cancer cells. Conditions: MDA-MB-231 cells. The protocol: as §1, §2
For experiment [2], the system named is PC-3 prostate cancer cells. Kind of experiment: MTT assay, cell viability of PC-3 prostate cancer cells. To be noted: PC-3 cells. As for the experimental part:
Antiproliferative effect of FAS inhibitors on MCF-7 cells was determined by performing MTT assay. Roughly, 10,000 cells per well were plated in 96-well cell culture microplate (Costar, USA) and incubated overnight in full media (DMEM containing 10% FBS) for cells to adhere to the plate. […] Cell viability was evaluated by the MTT (Sigma-Aldrich, St. Louis, Mont.) assay. The absorbance of solubilized formazan was read at 570 nm using ELISA reader (Bio-TEK, Synergy-1).
as §2

The test system of experiment [3] is MCF-7 breast cancer cells. Kind of experiment: MTT assay, cell viability of MCF-7 breast cancer cells. To be noted: Homo sapiens, MCF7; MCF-7 cells, 24 hours of treatment. The protocol:
An MTT assay was performed with the FAS inhibiting compounds of Formulae II, III, IV and V (e.g., Compound 1A) on MCF-7 breast cancer cells, with an IC50 of about […] after 24 hours of treatment. The results are illustrated in FIG. 2.
as §1

Consider `O=C(CCn1cc(Br)c(=O)[nH]c1=O)OCCO` [5-Bromouracil ester, 2-Hydroxyethyl3-(5-bromo-2,4-dioxo-3,4-dihydropirimidin-1(2H)-yl)propanoate], for which the “anticancer effect (MTT assay), fragment alone” value (in the experiment with H460 lung cancer cells; in experiment [1]; in experiment [2]) was “no anticancer effect” throughout.

For the molecule `O=c1[nH]cc(Br)c(=O)[nH]1` [5-Bromouracil], the “anticancer effect (MTT assay), fragment alone” value (with H460 lung cancer cells; in experiment [1]; in experiment [2]) was “no anticancer effect” throughout.

Regarding `CCCCCCCCCCCCCCCCOC(=O)CCn1cc(Br)c(=O)[nH]c1=O` [Compound 1A, Hexadecyl 3-(5-bromo-2,4-dioxo-3,4-dihydropyrimidin-1(2H)-yl)propanoate], the IC50 in experiment [3] is approximately 10 µM. Also, the “cell viability (MTT)” value is “significantly reduced the viability” in the experiment on H460 lung cancer cells (24-hr treatment (FIG. 4: 10 μM)), “significantly reduced the viability” in experiment [1] (24-hr treatment (FIG. 5: 10 μM)) and “reduced the viability” in experiment [2] (72-hr treatment (FIG. 6B: 10 μM)).
